Laboratory results from patent US7501418B2, “Fused heterocyclic isoxazoline derivatives and their use as anti-depressants” (Janssen Pharmaceutica, N.V., priority 2002, dated 2009).
Counter-ions that a name gives are not always drawn. Like-named read-outs stand apart in the source and are kept apart here.

What was measured:
hα2C receptor = target: T1, hα2C receptor (Homo sapiens, UniProt P18825); test: Radioligand binding experiment for α2C-adrenergic receptor ([3H]-raulwolscine)
T1 construct: expressed in transfected cells
T1 sequence (P18825 1-462): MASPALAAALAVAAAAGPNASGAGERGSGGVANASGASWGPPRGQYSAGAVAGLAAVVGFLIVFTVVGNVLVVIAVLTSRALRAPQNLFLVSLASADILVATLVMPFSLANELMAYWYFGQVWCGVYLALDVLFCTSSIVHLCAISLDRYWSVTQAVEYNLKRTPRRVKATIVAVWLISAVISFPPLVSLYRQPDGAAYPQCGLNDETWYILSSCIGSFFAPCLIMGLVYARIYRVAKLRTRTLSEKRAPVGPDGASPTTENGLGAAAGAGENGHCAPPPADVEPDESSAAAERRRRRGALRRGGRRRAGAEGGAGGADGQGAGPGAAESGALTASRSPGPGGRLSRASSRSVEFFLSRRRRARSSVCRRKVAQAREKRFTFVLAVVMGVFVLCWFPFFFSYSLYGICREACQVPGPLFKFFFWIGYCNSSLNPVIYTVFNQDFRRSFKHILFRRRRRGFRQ
Description: (§1) In general, a low concentration of a radioligand with a high binding affinity for a particular receptor or transporter is incubated with a sample of a tissue preparation enriched in a particular receptor or transporter or with a preparation of cells expressing cloned human receptors in a buffered medium. During the incubation, the radioligand binds to the receptor or transporter. When equilibrium of binding is reached, the receptor bound radioactivity is separated from the non-bound radioactivity, and the receptor- or transporter-bound activity is counted. The interaction of the test compounds with the receptor is assessed in competition binding experiments. Various concentrations of the test compound are added to the incubation mixture containing the receptor- or transporter preparation and the radioligand. The test compound in proportion to its binding affinity and its concentration inhibits binding of the radioligand. The radioligand used for hα2A, hα2B and hα2C receptor binding was [^3H]-raulwolscine and for the h5-HT transporter was [^3H]paroxetine. CHO cells, stabile transfected with human adrenergic-α2A-, -α2B or α2C receptor cDNA, were cultured in Dulbecco's Modified Eagle's Medium (DMEM)/Nutrient mixture Ham's F12 (ratio 1:1)(Gibco, Gent-Belgium) supplemented with 10% heat inactivated fetal calf serum (Life Technologies, Merelbeke-Belgium) and antibiotics (100 IU/ml penicillin G, 100 μg/ml streptomycin sulphate, 110 μg/ml pyruvic acid and 100 μg/ml L-glutamine). One day before collection, cells were induced with 5 mM sodiumbutyrate. Upon 80-90% of confluence, cells were scraped in phosphate buffered saline without Ca^2+ and Mg^2+ and collected by centrifugation at 1500×g for 10 min. The cells were homogenised in Tris-HCl 50 mM using an Ultraturrax homogenizer and centrifuged for 10 min at 23,500×g. The pellet was washed once by resuspension and rehomogenization and the final pellet was resuspended in Tris-HCl, divided in 1 ml aliquots and stored at −70° C. Membranes were thawed and re-homogenized in incubation buffer (glycylglycine 25 mM, pH 8.0). In a total volume of 500 μl, 2-10 μg protein was incubated with [^3H]raulwolscine (NET-722) (New England Nuclear, USA) (1 nM final concentration) with or without competitor for 60 min at 25° C. followed by rapid filtration over GF/B filter using a Filtermate196 harvester (Packard, Meriden, Conn.). Filters were rinsed extensively with ice-cold rinsing buffer (Tris-HCl 50 mM pH 7.4). Filter-bound radioactivity was determined by scintillation counting in a Topcount (Packard, Meriden, Conn.) and results were expressed as counts per minute (cpm). Non-specific binding was determined in the presence of 1 μM oxymetazoline for hα2A- and hα2B receptors and 1 μM spiroxatrine for hα2C receptors. Data from assays in the presence of compound were calculated as a percentage of total binding measured in the absence of test compound. Inhibition curves, plotting percent of total binding versus the log value of the concentration of the test compound, were automatically generated, and sigmoidal inhibition curves were fitted using non-linear regression. The pIC50 values of test compounds were derived from individual curves.

h5-HT transporter = target: T2, h5-HT transporter (Homo sapiens, UniProt P31645); test: Radioligand binding experiment for 5-HT transporter ([3H]paroxetine); details: human platelet membranes, [3H]paroxetine 0.5 nM
T2 construct: Human platelet membranes (Oceanix Biosciences Corporation, Hanover, Md., USA) were thawed; tissue Oceanix Biosciences Corporation, Hanover, Md., USA; host or cells: human platelet membranes
Description: In general, a low concentration of a radioligand with a high binding affinity for a particular receptor or transporter is incubated with a sample of a tissue preparation enriched in a particular receptor or transporter or with a preparation of cells expressing cloned human receptors in a buffered medium. During the incubation, the radioligand binds to the receptor or transporter. When equilibrium of binding is reached, the receptor bound radioactivity is separated from the non-bound radioactivity, and the receptor- or transporter-bound activity is counted. The interaction of the test compounds with the receptor is assessed in competition binding experiments. Various concentrations of the test compound are added to the incubation mixture containing the receptor- or transporter preparation and the radioligand. The test compound in proportion to its binding affinity and its concentration inhibits binding of the radioligand. The radioligand used for hα2A, hα2B and hα2C receptor binding was [^3H]-raulwolscine and for the h5-HT transporter was [^3H]paroxetine. Human platelet membranes (Oceanix Biosciences Corporation, Hanover, Md., USA) were thawed, diluted in buffer (Tris-HCl 50 mM, 120 mM NaCl and 5 mM KCl) and quickly (max 3 s) homogenised with an Ultraturrax homogenizer. In a total volume of 250 μL, 50-100 μg protein was incubated with [^3H]paroxetine (NET-869) (New England Nuclear, USA) (0.5 nM final concentration) with or without competitor for 60 min at 25 ° C. Incubation was stopped by rapid filtration of the incubation mixture over GF/B filters, pre-wetted with 0.1% polyethyleneamine, using a Filtermate196 harvester (Packard, Meriden, Conn.). Filters were rinsed extensively with ice-cold buffer and radioactivity on the filters was counted in a Topcount liquid scintillation counter (Packard, Meriden, Conn.). Data were expressed as cpm. Imipramine (at 1 μM final concentration) was used to determine the non-specific binding. Data from assays in the presence of compound were calculated as a percentage of total binding measured in the absence of test compound. Inhibition curves, plotting percent of total binding versus the log value of the concentration of the test compound, were automatically generated, and sigmoidal inhibition curves were fitted using non-linear regression. The pIC50 values of test compounds were derived from individual curves.

hα2A receptor = target: T3, hα2A receptor (Homo sapiens, UniProt P08913); test: Radioligand binding experiment for α2A-adrenergic receptor ([3H]-raulwolscine); details: CHO cell membranes with human α2A receptor, [3H]raulwolscine 1 nM
T3 construct: expressed in transfected cells
T3 sequence (P08913 1-465): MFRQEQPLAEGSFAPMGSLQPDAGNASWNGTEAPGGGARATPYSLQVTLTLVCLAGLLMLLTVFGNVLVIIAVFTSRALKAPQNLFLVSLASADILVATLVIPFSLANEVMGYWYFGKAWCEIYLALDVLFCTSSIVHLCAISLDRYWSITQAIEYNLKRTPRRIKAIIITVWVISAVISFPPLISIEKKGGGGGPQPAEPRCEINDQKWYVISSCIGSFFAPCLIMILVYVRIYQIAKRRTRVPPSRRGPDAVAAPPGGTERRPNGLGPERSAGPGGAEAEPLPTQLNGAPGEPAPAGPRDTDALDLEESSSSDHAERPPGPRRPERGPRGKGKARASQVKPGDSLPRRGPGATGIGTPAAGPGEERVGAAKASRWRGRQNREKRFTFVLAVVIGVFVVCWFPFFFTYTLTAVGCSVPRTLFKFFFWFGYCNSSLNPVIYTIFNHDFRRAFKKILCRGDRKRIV
Description: as §1

hα2B receptor = target: T4, hα2B receptor (Homo sapiens, UniProt P18089); test: Radioligand binding experiment for α2B-adrenergic receptor ([3H]-raulwolscine); details: CHO cell membranes with human α2B receptor, [3H]raulwolscine 1 nM
T4 construct: expressed in transfected cells
T4 sequence (P18089 1-450): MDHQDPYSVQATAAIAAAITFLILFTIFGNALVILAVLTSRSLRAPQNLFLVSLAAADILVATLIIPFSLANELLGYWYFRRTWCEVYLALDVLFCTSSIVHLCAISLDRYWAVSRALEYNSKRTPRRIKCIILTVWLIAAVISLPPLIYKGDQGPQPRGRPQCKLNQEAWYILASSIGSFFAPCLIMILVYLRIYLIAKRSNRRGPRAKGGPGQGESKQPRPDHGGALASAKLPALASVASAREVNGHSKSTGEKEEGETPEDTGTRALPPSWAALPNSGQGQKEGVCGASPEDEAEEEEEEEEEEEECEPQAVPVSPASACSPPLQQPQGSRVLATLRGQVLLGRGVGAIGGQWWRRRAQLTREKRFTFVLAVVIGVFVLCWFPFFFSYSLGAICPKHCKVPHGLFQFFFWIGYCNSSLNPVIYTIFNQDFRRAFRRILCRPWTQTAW
Description: as §1

[1] = CHO cell membranes with human α2C receptor, [3H]raulwolscine 1 nM
[2] = CHO cell membranes with human α2C receptor, [3H]raulwolscine 1 nM, read-out: hα2C (pIC50) (converted)
[3] = read-out: 5-HTT (pIC50) (converted)
[4] = read-out: hα2A (pIC50) (converted)

T2 sequence (P31645 whole entry): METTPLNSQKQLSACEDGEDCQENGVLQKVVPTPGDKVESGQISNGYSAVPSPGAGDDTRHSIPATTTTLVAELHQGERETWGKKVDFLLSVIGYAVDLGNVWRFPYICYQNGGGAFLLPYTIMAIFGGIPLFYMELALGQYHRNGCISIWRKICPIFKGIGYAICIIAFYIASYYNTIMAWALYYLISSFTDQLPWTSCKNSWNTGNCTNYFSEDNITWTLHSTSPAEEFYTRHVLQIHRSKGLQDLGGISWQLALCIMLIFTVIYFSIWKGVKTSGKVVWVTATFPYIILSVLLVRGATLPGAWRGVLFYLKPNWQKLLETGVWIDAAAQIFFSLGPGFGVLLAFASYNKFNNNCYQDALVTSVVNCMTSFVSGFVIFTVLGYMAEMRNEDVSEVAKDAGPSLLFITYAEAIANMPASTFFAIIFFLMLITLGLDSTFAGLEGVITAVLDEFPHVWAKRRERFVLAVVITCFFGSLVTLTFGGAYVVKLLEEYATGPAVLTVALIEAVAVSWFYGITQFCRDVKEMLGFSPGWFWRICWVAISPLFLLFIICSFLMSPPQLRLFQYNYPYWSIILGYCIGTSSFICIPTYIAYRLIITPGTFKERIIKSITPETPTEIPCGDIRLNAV

| SMILES | hα2C (pIC50) (hα2C receptor; [1]) | 5-HTT (pIC50) (h5-HT transporter) | hα2A (pIC50) (hα2A receptor) | also measured |
| --- | --- | --- | --- | --- |
| C/C(=C\c1ccccc1)CN1CCN(CC2ON=C3c4cc5ccn(C)c5cc4OCC32)CC1 (centres unmarked) [Compound 7, 7-methyl-3-[4-(2-methyl-3-phenyl-allyl)-piperazin-1-ylmethyl]-3a,4-dihydro-3H,7H-2,5-dioxa-1,7-diaza-dicyclopenta[a,g]naphthlene] |  |  |  | IC50 (hα2C receptor): 0.794 nM; IC50 (h5-HT transporter; 5-HTT (pIC50)): 5.01 nM; IC50 (hα2A receptor; hα2A (pIC50)): 3.16 nM |
| C/C(=C\c1ccc(F)cc1)CN1CCN(CC2ON=C3c4ccncc4OCC32)CC1.O=C(O)C(=O)O (racemic) [Compound 21] | 7.8 | 7.1 | 8.2 |  |
| COCC(=O)n1ccc2cc3c(cc21)OCC1C3=NOC1CN1CCN(C/C(C)=C/c2ccccc2)CC1 (racemic) [Compound 14] | 8.9 | 8.4 | 8.5 |  |
| C/C(=C\c1ccccc1)CN1CCN(CC2ON=C3c4cc5ccn(CCO)c5cc4OCC32)CC1 (centres unmarked) [Compound 8] |  |  |  | IC50 (hα2C receptor; hα2C (pIC50), CHO cell membranes with human α2C receptor, [3H]raulwolscine 1 nM): 2 nM; IC50 (h5-HT transporter; 5-HTT (pIC50)): 3.98 nM; IC50 (hα2A receptor; hα2A (pIC50)): 15.8 nM; IC50 (hα2B receptor; hα2B (pIC50)): 5.01 nM |
| C/C(=C\c1ccccc1)CN1CCN(CC2ON=C3c4cc5ccn(C(=O)C6CC6)c5cc4OCC32)CC1 (racemic) [Compound 12] | 8.5 | 7.7 | 8.2 |  |
| CC(=O)n1ccc2cc3c(cc21)OCC1C3=NOC1CN1CCN(C/C(C)=C/c2ccccc2)CC1 (centres unmarked) [Compound 11, 1-{3-[4-(2-methyl-3-phenyl-allyl)-piperazin-1-ylmethyl]-3a,4-dihydro-3H-2,5-dioxa-1,7-diaza-dicyclopenta[a,g]naphthalen7-yl}-ethanone] |  |  |  | IC50 (hα2C receptor): 1 nM; IC50 (h5-HT transporter; 5-HTT (pIC50)): 6.31 nM; IC50 (hα2A receptor; hα2A (pIC50)): 2.51 nM |
| c1ccc2cc(CN3CCN(CC4ON=C5c6cc7cc[nH]c7cc6OCC54)CC3)ccc2c1 (racemic) [Compound 4] | 8.4 | 8.8 | 7.6 | hα2B (pIC50) (hα2B receptor): 7.3 |
| Clc1ccc(CN2CCN(CC3ON=C4c5cc6cc[nH]c6cc5OCC43)CC2)cc1 (racemic) [Compound 5] | 7.4 | 7.8 | 6.7 |  |
| COC(=O)n1ccc2cc3c(cc21)OCC1C3=NOC1CN1CCN(C/C(C)=C/c2ccccc2)CC1 (racemic) [Compound 13] | 8.4 | 7.9 | 8.4 |  |
| c1ccc2cc(CN3CCN(CC4ON=C5c6ccncc6OCC54)CC3)ccc2c1 (centres unmarked) [Compound 19, 3-(4-naphthalen-2-ylmethyl-piperazin-1-ylmethyl)-3a,4-dihydro-3H-2,5-dioxa-1,7-diaza-cyclopenta[a]naphthalene oxalate salt (1/1)] |  |  |  | IC50 (hα2C receptor; [2]): 39.8 nM; IC50 (h5-HT transporter; [3]): 100 nM; IC50 (hα2A receptor; [4]): 10 nM |
| CC(=CCN1CCN(CC2ON=C3c4cc5cc[nH]c5cc4OCC32)CC1)c1ccccc1 (racemic) [Compound 6] | 8.6 | 8.3 | 8.1 |  |
| C/C(=C\c1ccccc1)CN1CCN(CC2ON=C3c4cccnc4OCC32)CC1 (centres unmarked) [Compound 22, 3-[4-(2-methyl-3-phenyl-allyl)-piperazin-1-ylmethyl]-3a,4-dihydro-3H-2,5-dioxa-1,6-diaza-cyclopenta[a]naphthalene oxalate salt] |  |  |  | IC50 (hα2C receptor; [2]): 79.4 nM; IC50 (h5-HT transporter; [3]): 6310 nM; IC50 (hα2A receptor; [4]): 631 nM |
| C/C(=C\c1cccc(F)c1)CN1CCN(CC2ON=C3c4ccncc4OCC32)CC1 (racemic) [Compound 20] | 8.8 | 7.6 | 9.2 |  |
